Read-outs that look alike come from different tables or passages of the source.
Assays:
[1] = test system: 134 cancer cell lines; assay: Cell viability assay (ATPlite, 72 hours), IC50 on cancer cell line panel
[2] = test system: AP-1060 (ETV6-NTRK3); assay: Cell viability assay; conditions: read-out: IC50 in cell proliferation assay

With `CC(=O)Nc1cccc(-n2c(=O)n(C3CC3)c(=O)c3c(Nc4ccc(I)cc4F)n(C)c(=O)c(C)c32)c1` [trametinib] the IC50 ([1]; Homo sapiens, MV4-11, read-out: IC50 in cell proliferation assay, MV4-11 cell line (FLT3 ITD)) was 0.022 µM, the IC50 ([1]; Homo sapiens, MeWo, read-out: IC50 in cell proliferation assay, MeWo cell line) was 0.036 µM and the IC50 ([1]; Homo sapiens, NCCIT, read-out: IC50 in cell proliferation assay, NCC-IT cell line) was 0.871 µM. For the same compound, the IC50 ([1]; Homo sapiens, NCI-H82, read-out: IC50 in cell proliferation assay, cell line NCI-H82) was > 28.2 µM, the IC50 ([1]; Homo sapiens, NCI-H460, read-out: IC50 in cell proliferation assay, NCI-H460 cell line) was 0.033 µM and the IC50 ([1]; Homo sapiens, NCI-H661, read-out: IC50 in cell proliferation assay, NCI-H661 cell line) was > 28.2 µM. It also gave an IC50 ([1]; Homo sapiens, NCI-H716, read-out: IC50 in cell proliferation assay, cell line NCI-H716 (FGFR2-COL14A1)) of 0.034 µM, an IC50 ([1]; Homo sapiens, NCI-H1650, read-out: IC50 in cell proliferation assay, NCI-H1650 cell line (EGFR exon19del)) of 0.075 µM and an IC50 ([1]; Homo sapiens, NCI-H1975, read-out: IC50 in cell proliferation assay, NCI-H1975 cell line (EGFR p.L858R + p.T790M)) of 0.085 µM. For the same compound, the IC50 ([1]; Homo sapiens, NCI-H2228, read-out: IC50 in cell proliferation assay, NCI-H2228 cell line (EML4-ALK)) was 0.265 µM, the IC50 ([1]; Homo sapiens, OVCAR-3, read-out: IC50 in cell proliferation assay, cell line OVCAR-3) was > 28.2 µM and the IC50 ([1]; Homo sapiens, PFSK-1, read-out: IC50 in cell proliferation assay, cell line PFSK-1) was > 28.2 µM. The IC50 ([1]; Homo sapiens, RL95-2, read-out: IC50 in cell proliferation assay, cell line RL95-2 (EGFR p.A289V)) was 0.00155 µM, the IC50 ([1]; Homo sapiens, RPMI-7951, read-out: IC50 in cell proliferation assay, cell line RPMI-7951 (BRAF p.V600E)) was 0.017 µM and the IC50 ([1]; Homo sapiens, RS4-11, read-out: IC50 in cell proliferation assay, cell line RS4;11) was > 28.2 µM. The IC50 ([1]; Homo sapiens, Rec1, read-out: IC50 in cell proliferation assay, cell line REC-1) was 12.3 µM, the IC50 ([1]; Homo sapiens, SHP77, read-out: IC50 in cell proliferation assay, cell line SHP-77) was > 28.2 µM and the IC50 ([1]; Homo sapiens, SK-BR-3, read-out: IC50 in cell proliferation assay, cell line SK-BR-3 (ERBB2 amplification)) was > 31.6 µM. The IC50 ([1]; Homo sapiens, SK-N-AS, read-out: IC50 in cell proliferation assay, cell line SK-N-AS) was 0.004 µM, the IC50 ([1]; Homo sapiens, SK-N-FI, read-out: IC50 in cell proliferation assay, cell line SK-N-FI) was 0.034 µM and the IC50 ([1]; Homo sapiens, SK-N-MC, read-out: IC50 in cell proliferation assay, cell line SK-N-MC) was > 31.6 µM. The IC50 ([1]; Homo sapiens, SK-N-SH, read-out: IC50 in cell proliferation assay, cell line SK-N-SH (ALK p.F1174L)) was 0.017 µM, the IC50 ([1]; Homo sapiens, SNU-5, read-out: IC50 in cell proliferation assay, cell line SNU-5 (MET amplification)) was 0.012 µM and the IC50 ([1]; Homo sapiens, SNU-16, read-out: IC50 in cell proliferation assay, cell line SNU-16 (FGFR2 amplification)) was 0.146 µM. It also gave an IC50 ([1]; Homo sapiens, SNU-C2B, read-out: IC50 in cell proliferation assay, cell line SNU-C2B (EGFR p.R165Q)) of 0.041 µM, an IC50 ([1]; Homo sapiens, SU-DHL-1, read-out: IC50 in cell proliferation assay, cell line SU-DHL-1 (NPM1-ALK)) of 0.279 µM and an IC50 ([1]; Homo sapiens, SU-DHL-6, read-out: IC50 in cell proliferation assay, cell line SU-DHL-6) of 0.027 µM. For the same compound, the IC50 ([1]; Homo sapiens, SUP-T1, read-out: IC50 in cell proliferation assay, cell line SUP-T1) was > 28.2 µM, the IC50 ([1]; Homo sapiens, SW48, read-out: IC50 in cell proliferation assay, cell line SW48 (EGFR p.G719S)) was 0.006 µM and the IC50 ([1]; Homo sapiens, SW480, read-out: IC50 in cell proliferation assay, cell line SW480) was 0.23 µM. It also gave an IC50 ([1]; Homo sapiens, SW626, read-out: IC50 in cell proliferation assay, cell line SW626) of 0.059 µM, an IC50 ([1]; Homo sapiens, SW780, read-out: IC50 in cell proliferation assay, cell line SW780 (FGFR3-BAIAP2L1)) of 0.02 µM and an IC50 ([1]; Homo sapiens, SW837, read-out: IC50 in cell proliferation assay, cell line SW837) of 0.098 µM. It also gave an IC50 ([1]; Homo sapiens, SW872, read-out: IC50 in cell proliferation assay, cell line SW872 (BRAF p.V600E)) of 0.023 µM, an IC50 ([1]; Homo sapiens, SW900, read-out: IC50 in cell proliferation assay, cell line SW900) of 0.111 µM and an IC50 ([1]; Homo sapiens, SW948, read-out: IC50 in cell proliferation assay, cell line SW948) of 0.026 µM. For the same compound, the IC50 ([1]; Homo sapiens, SW982, read-out: IC50 in cell proliferation assay, cell line SW982 (BRAF p.V600E)) was 0.929 µM, the IC50 ([1]; Homo sapiens, SW-620, read-out: IC50 in cell proliferation assay, cell line SW620) was 0.017 µM and the IC50 ([1]; Homo sapiens, T98G, read-out: IC50 in cell proliferation assay, cell line T98G) was > 28.2 µM. For the same compound, the IC50 ([1]; Homo sapiens, TCC-SUP, read-out: IC50 in cell proliferation assay, cell line TCCSUP) was 1.45 µM, the IC50 ([1]; Homo sapiens, THP-1, read-out: IC50 in cell proliferation assay, cell line THP-1) was 0.001 µM and the IC50 ([1]; Homo sapiens, U2OS, read-out: IC50 in cell proliferation assay, cell line U2OS) was 0.004 µM. For the same compound, the IC50 ([1]; Homo sapiens, U-87 MG, read-out: IC50 in cell proliferation assay, cell line U-87MG ATCC) was 0.245 µM, the IC50 ([1]; Homo sapiens, U-118-MG, read-out: IC50 in cell proliferation assay, cell line U-118MG) was 0.151 µM and the IC50 ([1]; Homo sapiens, UMUC3, read-out: IC50 in cell proliferation assay, cell line UM-UC-3) was 0.021 µM. It also gave an IC50 ([1]; Hs766T, read-out: IC50 in cell proliferation assay, Hs 766T cell line) of 0.00234 µM, an IC50 ([1]; L-82, read-out: IC50 in cell proliferation assay, L-82 cell line (NPM1-ALK)) of 0.086 µM and an IC50 ([1]; Rh30, read-out: IC50 in cell proliferation assay, cell line Rh30) of 0.237 µM. The IC50 ([1]; read-out: IC50 in cell proliferation assay, 11-18 cell line (EGFR p.L858R)) was > 31.6 µM, the IC50 ([1]; read-out: IC50 in cell proliferation assay, Hs 852.T cell line) was 0.218 µM and the IC50 ([1]; read-out: IC50 in cell proliferation assay, JAR cell line) was > 28.2 µM. It also gave an IC50 ([1]; read-out: IC50 in cell proliferation assay, cell line 5637) of 0.297 µM, an IC50 ([1]; read-out: IC50 in cell proliferation assay, cell line A-388) of 0.099 µM and an IC50 ([1]; read-out: IC50 in cell proliferation assay, cell line DB) of 18.9 µM. The IC50 ([1]; read-out: IC50 in cell proliferation assay, cell line DEL (NPM1-ALK)) was > 31.6 µM, the IC50 ([1]; read-out: IC50 in cell proliferation assay, cell line ES-2 (BRAF p.V600E)) was 0.007 µM and the IC50 ([1]; read-out: IC50 in cell proliferation assay, cell line PA-1) was 0.666 µM. For the same compound, the IC50 ([1]; read-out: IC50 in cell proliferation assay, cell line PC-3) was > 28.2 µM, the IC50 ([1]; read-out: IC50 in cell proliferation assay, cell line RD) was 0.004 µM and the IC50 ([1]; read-out: IC50 in cell proliferation assay, cell line RKO (BRAF p.V600E)) was 0.008 µM. The IC50 ([1]; read-out: IC50 in cell proliferation assay, cell line RL) was > 28.2 µM, the IC50 ([1]; read-out: IC50 in cell proliferation assay, cell line RT-4 (FGFR3-TACC3)) was 0.072 µM and the IC50 ([1]; read-out: IC50 in cell proliferation assay, cell line SR (NPM1-ALK)) was 0.936 µM. For the same compound, the IC50 ([1]; read-out: IC50 in cell proliferation assay, cell line T24) was 0.005 µM, the IC50 ([1]; read-out: IC50 in cell proliferation assay, cell line TT (RET p.C634W)) was 1.05 µM and the IC50 ([1]; read-out: IC50 in cell proliferation assay, cell line VA-ES-BJ) was 0.089 µM. The IC50 [2] was 0.291 µM.

From PMC9516332 (Frontiers in Oncology, 2022)
